Counter-ions that a name gives are not always drawn.

Assay [1] addresses T1, Human vitronectin receptor (αvβ3) (Homo sapiens, UniProt P05106+P06756).
T1 construct: Human vitronectin receptor (αvβ3) was purified from human placenta; from tissue; host or cells: human placenta
The experiment in a line: Vitronectin adhesion assay: solid phase receptor assay, competition with biotinylated vitronectin. Type of assay: binding. The settings on record: purified human vitronectin receptor; 1 nM biotinylated vitronectin. The procedure: Vitronectin Adhesion Assay
Human vitronectin receptor (αvβ3) was purified from human placenta as previously described [Pytela et al., Methods in Enzymology, 144:475-489 (1987)]. Human vitronectin was purified from fresh frozen plasma as previously described [Yatohgo et al., Cell Structure and Function, 13:281-292 (1988)]. Biotinylated human vitronectin was prepared by coupling NHS-biotin from Pierce Chemical Company (Rockford, Ill.) to purified vitronectin as previously described [Charo et al., J. Biol. Chem., 266(3):1415-1421 (1991)]. Assay buffer, OPD substrate tablets, and RIA grade BSA were obtained from Sigma (St. Louis, Mo.). Anti-biotin antibody was obtained from Calbiochem (La Jolla, Calif.). Linbro microtiter plates were obtained from Flow Labs (McLean, Va.). ADP reagent was obtained from Sigma (St. Louis, Mo.).
This assay was essentially the same as previously reported [Niiya et al., Blood, 70:475-483 (1987)]. The purified human vitronectin receptor (αvβ3) was diluted from stock solutions to 1.0 μg/mL in Tris-buffered saline containing 1.0 mM Ca^++, Mg^++, and Mn^++, pH 7.4 (TBS^+++). The diluted receptor was immediately transferred to Linbro microtiter plates at 100 μL/well (100 ng receptor/well). The plates were sealed and incubated overnight at 4° C. to allow the receptor to bind to the wells. All remaining steps were at room temperature. The assay plates were emptied and 200 μL of 1% RIA grade BSA in TBS^+++ (TBS^+++/BSA) were added to block exposed plastic surfaces. Following a 2 hour incubation, the assay plates were washed with TBS^+++ using a 96 well plate washer. Logarithmic serial dilution of the test compound and controls were made starting at a stock concentration of 2 mM and using 2 nM biotinylated vitronectin in TBS^+++/BSA as the diluent. This premixing of labeled ligand with test (or control) ligand, and subsequent transfer of 50 μL aliquots to the assay plate was carried out with a CETUS Propette robot; the final concentration of the labeled ligand was 1 nM and the highest concentration of test compound was 1.0×10^−4 M. The competition occurred for two hours after which all wells were washed with a plate washer as before. Affinity purified horseradish peroxidase labeled goat anti-biotin antibody was diluted 1:3000 in TBS^+++/BSA and 125 μL were added to each well. After 30 minutes, the plates were washed and incubated with OPD/H2O2 substrate in 100 mM/L Citrate buffer, pH 5.0. The plate was read with a microtiter plate reader at a wavelength of 450 nm and when the maximum-binding control wells reached an absorbance of about 1.0, the final A450 were recorded for analysis. The data were analyzed using a macro written for use with the EXCELJ spreadsheet program. The mean, standard deviation, and % CV were determined for duplicate concentrations. The mean A450 values were normalized to the mean of four maximum-binding controls (no competitor added)(B-MAX). The normalized values were subjected to a four parameter curve fit algorithm [Rodbard et al., Int.

In assay [2] the target is T2, Human fibrinogen receptor IIb/IIIa (Homo sapiens, UniProt P05106+P08514).
T2 construct: Human fibrinogen receptor ([…]) was purified from outdated platelets; from tissue; host or cells: outdated human platelets
The experiment in a line: Purified IIb/IIIa receptor assay: solid phase receptor assay, competition with biotinylated vitronectin. In kind it is binding. The settings on record: 1 nM biotinylated vitronectin. From the text: Purified IIb/IIIa Receptor Assay
Human fibrinogen receptor ([…]) was purified from outdated platelets. (Pytela, R., Pierschbacher, M. D., Argraves, S., Suzuki, S., and Rouslahti, E. “Arginine-Glycine-Aspartic acid adhesion receptors”, Methods in Enzymology 144(1987):475-489.) Human vitronectin was purified from fresh frozen plasma as described in Yatohgo, T., Izumi, M., Kashiwagi, H., and Hayashi, M., “Novel purification of vitronectin from human plasma by heparin affinity chromatography,” Cell Structure and Function 13(1988):281-292. Biotinylated human vitronectin was prepared by coupling NHS-biotin from Pierce Chemical Company (Rockford, Ill.) to purified vitronectin as previously described. (Charo, I. F., Nannizzi, L., Phillips, D. R., Hsu, M. A., Scarborough, R. M., “Inhibition of fibrinogen binding to GP IIb/IIIa by a GP IIIa peptide”, J. Biol. Chem. 266(3)(1991): 1415-1421.) Assay buffer, OPD substrate tablets, and RIA grade BSA were obtained from Sigma (St. Louis, Mo.). Anti-biotin antibody was obtained from Calbiochem (La Jolla, Calif.). Linbro microtiter plates were obtained from Flow Labs (McLean, Vs.). ADP reagent was obtained from Sigma (St. Louis, Mo.).
This assay is essentially the same reported in Niiya, K., Hodson, E., Bader, R., Byers-Ward, V. Koziol, J. A., Plow, E. F. and Ruggeri, Z. M., “Increased surface expression of the membrane glycoprotein IIb/IIIa complex induced by platelet activation: Relationships to the binding of fibrinogen and platelet aggregation”, Blood 70(1987):475-483. The purified human fibrinogen receptor ([…]) was diluted from stock solutions to 1.0 μg/mL in Tris-buffered saline containing 1.0 mM Ca^++, Mg^++, and Mn^++, pH 7.4 (TBS^+++). The diluted receptor was immediately transferred to Linbro microtiter plates at 100 μL/well (100 ng receptor/well). The plates were sealed and incubated overnight at 4° C. to allow the receptor to bind to the wells. All remaining Steps were at room temperature. The assay plates were emptied and 200 μL of 1% RIA grade BSA in TBS^+++ (TBS^+++/BSA) were added to block exposed plastic surfaces. Following a 2 hour incubation, the assay plates were washed with TBS^+++ using a 96 well plate washer. Logarithmic serial dilution of the test compound and controls were made starting at a stock concentration of 2 mM and using 2 nM biotinylated vitronectin in TBS^+++/BSA as the diluent. This premixing of labeled ligand with test (or control) ligand, and subsequent transfer of 50 μL aliquots to the assay plate was carried out with a CETUS Propette robot; the final concentration of the labeled ligand was 1 nM and the highest concentration of test compound was 1.0×10^−4 M. The competition occurred for two hours after which all wells were washed with a plate washer as before. Affinity purified horseradish peroxidase labeled goat anti-biotin antibody was diluted 1:3000 in TBS^+++/BSA and 125 μL were added to each well. After 30 minutes, the plates were washed and incubated with […] substrate in 100 mM/L citrate buffer, pH 5.0. The plate was read with a microtiter plate reader at a wavelength of 450 nm and when the maximum-binding control wells reached an absorbance of about 1.0, the final A450 were recorded for analysis. The data were analyzed using a macro written for use with the EXCELJ spreadsheet program. The mean, standard deviation, and % CV were determined for duplicate concentrations. The mean A450 values were normalized to the mean of four maximum-binding controls (no competitor added)(B-MAX). The normalized values were subjected to a four parameter curve fit algorithm, [Robard et al., Int. Atomic Energy Agency.

Broadly, the IC50 is the concentration needed to halve the response being measured. Lower therefore signals inhibition by little substance. In the case of `O=C(O)C[C@H](NC(=O)CNC(=O)c1cncc(N=C2NCC(O)CN2)c1)c1cc(Cl)cc(Cl)c1O` (stereo partly drawn) [Example 10], the values for the IC50 in assay [1] and in assay [2] were 0.14 nM and 161 nM, respectively.

With `O=C(O)CC(NC(=O)CNC(=O)c1cnc(Cl)c(NC2=NCCN2)c1)c1cc(Cl)cc(Cl)c1O` (stereo not drawn) [Example 19, N-[[6-chloro-5-[(4,5,-dihydro-1H-imidazol-2-yl)amino]-3-pyridinyl]carbonyl]-glycyl-3-(3,5-dichloro-2-hydroxyphenyl)-β-alanine, (trifluoroacetate) salt, monohydrate], the IC50 in assay [1] came out at 2.96 nM; in assay [2], 2490 nM.

With `O=C(O)C[C@H](NC(=O)CNC(=O)c1cncc(NC2=NCC(O)CN2)c1)c1cc(Br)cc(Cl)c1O` (stereo partly drawn) [Example 7], the IC50 in assay [1] was determined as 0.21 nM; in assay [2], 361 nM.

For `O=C(O)C[C@H](NC(=O)CNC(=O)c1cncc(N=C2NCC(O)CN2)c1)c1cc(Br)cc(Br)c1O` (stereo partly drawn) [Example 11], the half-inhibitory concentration (IC50) in assay [1] stood at 0.34 nM; in assay [2], 462 nM.

As for `Cc1sc(C(=O)NCC(=O)N[C@@H](CC(=O)O)c2cc(Cl)cc(Cl)c2O)cc1NC1=NCC(O)CN1` (stereo partly drawn) [Example 14, (3S)-N-[[5-methyl-4-[(1,4,5,6-tetrahydro-5-hydroxy-2-pyrimidinyl)amino]-2-thienyl]carbonyl]glycyl-3-(3,5-dichloro-2-hydroxyphenyl)-β-alanine, trifluoroacetate salt], the IC50 was found to be 12.4 nM in assay [1] and 772 nM in assay [2].

Turning to `N=C(N)Nc1nc(C(=O)NCC(=O)NC(CC(=O)O)c2cccnc2)cs1` (stereo not drawn) [Example 8], the half-inhibitory concentration (IC50) in assay [1] is 95.1 nM; in assay [2], 857 nM.

Regarding `COCCN/C(N)=N/c1cc(C(=O)NCC(=O)N[C@@H](CC(=O)O)c2cc(Cl)cc(Cl)c2O)c[nH]c1=O` [Example 46], the results for the IC50 in assay [1] and in assay [2] were 1.97 nM and 2690 nM, respectively.

Consider `O=C(O)C[C@H](NC(=O)CNC(=O)c1cc(NC2=NCC(O)CN2)[nH]c(=O)c1)c1cc(Cl)cc(Cl)c1O` (stereo partly drawn) [Example 42], for which the concentration for half-maximal inhibition (IC50) in assay [1] was determined as 3.1 nM; in assay [2] it was 5950 nM.

On to `O=C(O)C[C@@H](NC(=O)CNC(=O)c1c[nH]c(=O)c(NC2=NCCN2)c1)c1cc(Cl)cc(Cl)c1O` [Example 48], for which the half-inhibitory concentration (IC50) worked out at 4.3 nM in assay [1] and 27900 nM in assay [2].

As for `O=C(O)CC(NC(=O)CNC(=O)c1c[nH]c(=O)c(NC2=NCC(O)CN2)c1)c1cc(Br)cc(Br)c1O` (stereo not drawn) [Example 29], the concentration for half-maximal inhibition (IC50) in assay [1] turned out to be 0.46 nM; in assay [2], 1380 nM.

As to `O=C(O)CC(NC(=O)CNC(=O)c1c[nH]c(=O)c(NC2=NCCN2)c1)c1cc(Cl)cc(Cl)c1O` (stereo not drawn) [Example 20, N-[[5-[(4,5,-dihydro-1H-imidazol-2-yl)amino]-1,6-dihydro-6-oxo-3-pyridinyl]-carbonyl]glycyl-3-(3,5-dichloro-2-hydroxyphenyl)-β-alanine, (trifluoroacetate) salt], the figures for the half-maximal inhibitory concentration (IC50) in assay [1] and in assay [2] were 0.32 nM and 2020 nM, respectively.

On to `O=C(O)CC(NC(=O)CNC(=O)c1cncc(NC2=NCCN2)c1)c1cc(Cl)cc(I)c1O` (stereo not drawn) [Example 5], for which the half-maximal inhibitory concentration (IC50) in assay [1] stood at 0.42 nM; in assay [2] it was 884 nM.

`O=C(O)C[C@H](NC(=O)CNC(=O)c1csc(NC2=NCC(O)CN2)c1)c1cc(Cl)cc(Cl)c1O` (stereo partly drawn) [Example 37]: the half-inhibitory concentration (IC50) was found to be 63.8 nM in assay [1] and 267 nM in assay [2].

Consider `N=C(N)Nc1cncc(C(=O)NCC(=O)NC(CC(=O)O)c2cc(Cl)cc(Cl)c2O)c1` (stereo not drawn) [Example 2], for which the figures for the IC50 in assay [1] and in assay [2] were 1.32 nM and 272 nM, respectively.

`O=C(O)C[C@H](NC(=O)CNC(=O)c1cscc1CNC1=NCC(O)CN1)c1cc(Cl)cc(Cl)c1O` (stereo partly drawn) [Example 39]: the concentration for half-maximal inhibition (IC50) in assay [1] came out at 1920 nM; in assay [2], 2460 nM.

As for `COCCOCn1cc(C(=O)NCC(=O)NC(CC(=O)O)c2cc(Br)cc(Br)c2O)cc(NC2=NCC(O)CN2)c1=O` (stereo not drawn) [Example 28], the half-maximal inhibitory concentration (IC50) in assay [1] worked out at 0.43 nM; in assay [2], 984 nM.

Turning to `O=C(O)C[C@H](NC(=O)CNC(=O)c1c[nH]c(=O)c(NC2=NCC(O)CN2)c1)c1cc(Br)cc(Br)c1` (stereo partly drawn) [Example 35], the IC50 in assay [1] came to 0.14 nM; in assay [2], 340 nM.

Consider `O=C(O)C[C@H](NC(=O)CNC(=O)c1c[nH]c(=O)c(NC2=NCC(O)CN2)c1)c1cc(Br)cc(Cl)c1O` (stereo partly drawn) [Example 34], for which the 50% inhibitory concentration (IC50) turned out to be 0.34 nM in assay [1] and 1200 nM in assay [2].

On to `O=C(O)C[C@H](NC(=O)CNC(=O)c1cc(NC2=NCC(O)CN2)cs1)c1cc(Cl)cc(Cl)c1O` (stereo partly drawn) [Example 12, (3S)-N-[[4-[(1,4,5,6-tetrahydro-5-hydroxy-2-pyrimidinyl)amino]-2-thienyl]carbonyl]glycyl-3-(3,5-dichloro-2-hydroxyphenyl)-β-alanine, trifluoroacetate salt], for which the concentration for half-maximal inhibition (IC50) in assay [1] was 4.5 nM; in assay [2] it was 442 nM.

`O=C(O)C[C@H](NC(=O)CNC(=O)c1cc(=O)cc(NC2=NCC(O)CN2)[nH]1)c1cc(Cl)cc(Br)c1O` (stereo partly drawn) [Example 31]: the values for the IC50 in assay [1] and in assay [2] were 3940 nM and 1800 nM, respectively.

Turning to `O=C(O)CC(NC(=O)CNC(=O)c1cc(N=C2NCCN2)c[nH]c1=O)c1cc(Cl)cc(Cl)c1O` (stereo not drawn) [Example 23, N-[[5-(4,5,-dihydro-1H-imidazol-2-yl)amino]-1,2-dihydro-2-oxo-3-pyridinyl]-carbonyl]glycyl-3-(3,5-dichloro-2-hydroxyphenyl)-β-alanine, (trifluoroacetate) salt], the IC50 is 3600 nM in assay [1] and 10100 nM in assay [2].

These data come from patent publication US6689754B1, “Heterocyclic glycyl β-alanine derivatives” (G. D. Searle & Co., priority 1998, dated 2004).
